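In this assay, cells in 96-well plates receive the compound at five concentrations for 48 hours. Endpoints are linearly interpolated between the surrounding concentrations. GI50 is the concentration that inhibits growth by half.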 Active and inactive are the calls of the source. No stated cut-off is given here; in the data, active = GI50 up to about 1.1 µM and inactive = higher.
What was measured:
Assay in all cases: NCI anticancer screen, dose series, 48 h
[1] = test system: SNB-75
[2] = test system: UO-31
[3] = test system: CCRF-CEM
[4] = test system: UACC-257
[5] = test system: HT-29
[6] = test system: SF-268
[7] = test system: NCI-H522
[8] = test system: OVCAR-5
[9] = test system: SN12C
[10] = test system: HOP-92
[11] = test system: HL-60
[12] = test system: SK-OV-3
[13] = test system: MCF7
[14] = test system: RXF 393
[15] = test system: A549
[16] = test system: LOX IMVI
[17] = test system: OVCAR-8
[18] = test system: HOP-62
[19] = test system: PC-3
[20] = test system: MDA-MB-435
[21] = test system: COLO 205
[22] = test system: RPMI-8226
[23] = test system: EKVX
[24] = test system: SK-MEL-2
[25] = test system: SF-295
[26] = test system: SR
[27] = test system: SNB-19
[28] = test system: MOLT-4
[29] = test system: UACC-62
[30] = test system: TK-10
[31] = test system: BT-549
[32] = test system: Malme-3M
[33] = test system: HCC 2998
[34] = test system: MDA-N
[35] = test system: M14
[36] = test system: HCT-15
[37] = test system: DU-145
[38] = test system: SK-MEL-28
[39] = test system: KM12
[40] = test system: OVCAR-3
[41] = test system: Hs-578T
[42] = test system: NCI-H226
[43] = test system: CAKI-1
[44] = test system: K562
[45] = test system: SW-620
[46] = test system: 786-0
[47] = test system: A498
[48] = test system: T47D
[49] = test system: NCI-H23
[50] = test system: SK-MEL-5
[51] = test system: IGROV-1
[52] = test system: HCT-116
[53] = test system: MDA-MB-231
[54] = test system: ACHN
[55] = test system: OVCAR-4
[56] = test system: NCI/ADR-RES
[57] = test system: U-251
[58] = test system: NCI-H460
[59] = test system: SF-539

With CCCCC[C@H](O)[C@H](C)C=C1SCCCS1 the GI50 [1] was > 100 µM (inactive), the GI50 [2] was > 100 µM (inactive) and the GI50 [3] was > 100 µM (inactive). The GI50 [4] was > 100 µM (inactive), the GI50 [5] was > 100 µM (inactive) and the GI50 [6] was > 100 µM (inactive). For the same molecule, the GI50 [7] was > 100 µM (inactive), the GI50 [8] was > 100 µM (inactive) and the GI50 [9] was > 100 µM (inactive). The GI50 [10] was > 100 µM (inactive), the GI50 [11] was > 100 µM (inactive) and the GI50 [12] was > 100 µM (inactive). The GI50 [13] was > 100 µM (inactive), the GI50 [14] was > 100 µM (inactive) and the GI50 [15] was > 100 µM (inactive). For the same molecule, the GI50 [16] was > 100 µM (inactive), the GI50 [17] was > 100 µM (inactive) and the GI50 [18] was > 100 µM (inactive). The GI50 [19] was > 100 µM (inactive), the GI50 [20] was > 100 µM (inactive) and the GI50 [21] was > 100 µM (inactive). For the same molecule, the GI50 [22] was > 100 µM (inactive), the GI50 [23] was > 100 µM (inactive) and the GI50 [24] was > 100 µM (inactive). The GI50 [25] was > 100 µM (inactive), the GI50 [26] was > 100 µM (inactive) and the GI50 [27] was > 100 µM (inactive). The GI50 [28] was > 100 µM (inactive), the GI50 [29] was > 100 µM (inactive) and the GI50 [30] was > 100 µM (inactive). The GI50 [31] was > 100 µM (inactive), the GI50 [32] was > 100 µM (inactive) and the GI50 [33] was > 100 µM (inactive). For the same molecule, the GI50 [34] was > 100 µM (inactive), the GI50 [35] was > 100 µM (inactive) and the GI50 [36] was > 100 µM. The GI50 [37] was > 100 µM (inactive), the GI50 [38] was > 100 µM (inactive) and the GI50 [39] was > 100 µM (inactive). The GI50 [40] was > 100 µM (inactive), the GI50 [41] was > 100 µM (inactive) and the GI50 [42] was > 100 µM (inactive). For the same molecule, the GI50 [43] was > 100 µM (inactive), the GI50 [44] was > 100 µM (inactive) and the GI50 [45] was > 100 µM (inactive). The GI50 [46] was > 100 µM (inactive), the GI50 [47] was > 100 µM (inactive) and the GI50 [48] was 43.2 µM (inactive). The GI50 [49] was > 100 µM (inactive), the GI50 [50] was > 100 µM (inactive) and the GI50 [51] was > 100 µM (inactive). For the same molecule, the GI50 [52] was > 100 µM (inactive), the GI50 [53] was > 100 µM (inactive) and the GI50 [54] was > 100 µM (inactive). For the same molecule, the GI50 [55] was > 100 µM (inactive), the GI50 [56] was > 100 µM (inactive) and the GI50 [57] was > 100 µM (inactive).
For COc1ccc(-c2c(N)n(-c3cc(OC)cc(OC)c3)c(=O)c3cc([N+](=O)[O-])ccc23)cc1, the GI50 [2] was > 23.3 µM (inactive), the GI50 [3] was > 77.8 µM (inactive) and the GI50 [4] was > 90.4 µM (inactive). The GI50 [5] was > 53.2 µM (inactive), the GI50 [6] was 29.4 µM (inactive) and the GI50 [7] was 5.19 µM (inactive). The GI50 [8] was > 100 µM (inactive), the GI50 [9] was > 100 µM (inactive) and the GI50 [10] was 3.21 µM (inactive). For the same molecule, the GI50 [11] was 2.47 µM (inactive), the GI50 [12] was > 100 µM (inactive) and the GI50 [13] was 29.3 µM (inactive). The GI50 [14] was 11.1 µM (inactive), the GI50 [15] was > 100 µM (inactive) and the GI50 [16] was 24.7 µM (inactive). For the same molecule, the GI50 [17] was > 100 µM (inactive), the GI50 [18] was > 100 µM (inactive) and the GI50 [19] was 31.3 µM (inactive). For the same molecule, the GI50 [20] was 20.4 µM (inactive), the GI50 [21] was > 27.3 µM (inactive) and the GI50 [22] was 2.76 µM (inactive). The GI50 [23] was 38.3 µM (inactive), the GI50 [24] was > 100 µM (inactive) and the GI50 [25] was > 100 µM (inactive). The GI50 [26] was 27.4 µM (inactive), the GI50 [58] was > 100 µM (inactive) and the GI50 [27] was 28.3 µM (inactive). For the same molecule, the GI50 [28] was > 60.7 µM (inactive), the GI50 [29] was 99.3 µM (inactive) and the GI50 [30] was > 26 µM (inactive). The GI50 [31] was 19.2 µM (inactive), the GI50 [32] was > 100 µM (inactive) and the GI50 [33] was > 100 µM (inactive). The GI50 [59] was > 78.3 µM (inactive), the GI50 [34] was > 50.8 µM (inactive) and the GI50 [35] was 32.4 µM (inactive). The GI50 [36] was > 54.5 µM, the GI50 [37] was > 100 µM (inactive) and the GI50 [38] was > 100 µM (inactive). For the same molecule, the GI50 [39] was > 54.5 µM (inactive), the GI50 [40] was 24.4 µM (inactive) and the GI50 [41] was 6.01 µM (inactive). For the same molecule, the GI50 [42] was > 36.1 µM (inactive), the GI50 [43] was 31.4 µM (inactive) and the GI50 [44] was 23.8 µM (inactive). For the same molecule, the GI50 [45] was > 87.7 µM (inactive), the GI50 [46] was > 49.5 µM (inactive) and the GI50 [47] was 28 µM (inactive). For the same molecule, the GI50 [48] was 7.4 µM (inactive), the GI50 [49] was > 92 µM (inactive) and the GI50 [50] was 18 µM (inactive). For the same molecule, the GI50 [51] was > 52.6 µM (inactive), the GI50 [52] was 21.9 µM (inactive) and the GI50 [53] was 28.6 µM (inactive). For the same molecule, the GI50 [54] was > 100 µM (inactive), the GI50 [55] was 18.2 µM (inactive) and the GI50 [56] was > 66.1 µM (inactive). The GI50 [57] was > 100 µM (inactive).
